Where a name gives a salt, the structure may show the parent alone.
Test system: Aβ42 production in H4 cells stably transfected with APP751 containing the Swedish mutation (H4 APP751 SWE clone 8.20)
Assay: Cellular assay for inhibition of Aβ1-42 production (H4 APP751 SWE clone 8.20)
Assay type: cell-based
Settings: H4 APP751 SWE clone 8.20 cells, 19 h incubation; Table 5A, 6-alkyl and 6-substituted phenyl thiazine examples
Description: Cellular Assays for Inhibition of Aβ1-40 and Aβ1-42 Production
H4 cells stably transfected with APP751 containing the Swedish mutation (H4 APP751 SWE clone 8.20, developed at BMS) were maintained in log phase through twice weekly passage at a 1:20 split. […] Following incubation for 19 h in 5% CO2 at 37° C., plates were briefly centrifuged (1000 rpm, 5 min). A 10 μl aliquot from each well was transferred to a second assay plate (Costar 3709) for Aβ40 measurements. Antibody cocktails were freshly prepared by dilution into 40 mM Tris-HCl (pH 7.4) with 0.2% BSA and added to assay plates. For Aβ42 measurements, antibodies specific for the Aβ42 neoepitope (565, developed at BMS; conjugated to the Wallac reagent (Perkin Elmer)) and the N-terminal sequence of Aβ peptide (26D6, developed at SIBIA; conjugated to APC (Perkin Elmer)) were mixed and 20 μl of the mixture was added to each well of the incubated cell plate yielding a final concentration of 0.8 ng/well 565 and 75 ng/well 26D6. For the Aβ40 measurements, antibodies specific for the Aβ40 neoepitope (TSD, developed at BMS; conjugated to the Wallac reagent (Perkin Elmer)) and 26D6 as described above were mixed and 20 μl of the mixture was added to the 10 μl aliquots which had been removed previously from the cell plate yielding a final concentration of 1.6 ng/well TSD and 17.5 ng/well 26D6. Assay plates containing antibodies were sealed with aluminum foil and incubated overnight at 4° C. Signal was determined using a Viewlux counter (Perkin Elmer) and IC50 values determined using curve fitting in CurveMaster (Excel Fit based).

How did the IC50 turn out when COc1ccc([C@@H]2C[C@@H](c3cc(-c4cncnc4)c(F)cc3F)N=C(N)S2)cc1OC (racemic) [Example 1, (±)-4-(2,4-difluoro-5-(pyrimidin-5-yl)phenyl)-6-(3,4-dimethoxyphenyl)-5,6-dihydro-4H-1,3-thiazin-2-amine] was run?
Its IC50 is 1100 nM.

For NC1=N[C@H](c2cccc(-c3cncnc3)c2)C[C@@H](c2ccccc2)S1 (racemic) [Example 2, (±)-6-phenyl-4-(3-(pyrimidin-5-yl)phenyl)-5,6-dihydro-4H-1,3-thiazin-2-amine], which IC50 is on record?
The IC50 was 4100 nM.

With COc1ccc([C@@H]2C[C@@H](c3cccc(-c4cncnc4)c3)N=C(N)S2)cc1OC (racemic) [Example 3, (±)-6-(3,4-dimethoxyphenyl)-4-(3-(pyrimidin-5-yl)phenyl)-5,6-dihydro-4H-1,3-thiazin-2-amine] as the molecule, how does the IC50 read?
The IC50 was 1100 nM.

NC1=N[C@H](c2cccc(-c3cncnc3)c2)C[C@@H](Cc2ccccc2)S1 (racemic) [Example 4, (±)-6-benzyl-4-(3-(pyrimidin-5-yl)phenyl)-5,6-dihydro-4H-1,3-thiazin-2-amine] was tested. Which IC50 did it give?
The IC50 was 7400 nM.

Which IC50 does the source give for NC1=N[C@H](c2cccc(-c3cncnc3)c2)C[C@@H](C2CCCCC2)S1 (racemic) [Example 5, (±)-6-cyclohexyl-4-(3-(pyrimidin-5-yl)phenyl)-5,6-dihydro-4H-1,3-thiazin-2-amine] here?
Its IC50 is 3800 nM.

Which IC50 does the source give for C=CCC[C@@H]1C[C@@H](c2cccc(-c3cncnc3)c2)N=C(N)S1 (racemic) [Example 6, (±)-6-(but-3-enyl)-4-(3-(pyrimidin-5-yl)phenyl)-5,6-dihydro-4H-1,3-thiazin-2-amine] here?
The IC50 was 14000 nM.

For COc1ccc([C@@H]2C[C@@H](c3ccc(F)c(-c4cncnc4)c3)N=C(N)S2)cc1OC (racemic) [Example 7, (±)-6-(3,4-dimethoxyphenyl)-4-(4-fluoro-3-(pyrimidin-5-yl)phenyl)-5,6-dihydro-4H-1,3-thiazin-2-amine], which IC50 is on record?
The IC50 was 1700 nM.

COc1ccc([C@@H]2C[C@@H](c3cc(-c4cncnc4)ccc3F)N=C(N)S2)cc1OC (racemic) [Example 8, (±)-6-(3,4-dimethoxyphenyl)-4-(2-fluoro-5-(pyrimidin-5-yl)phenyl)-5,6-dihydro-4H-1,3-thiazin-2-amine] was tested. Which IC50 did it give?
The IC50 was 1900 nM.

NC1=N[C@H](c2cccc(-c3cncnc3)c2)C[C@@H](c2ccc(OC(F)(F)F)cc2)S1 (racemic) [Example 9, (±)-4-(3-(pyrimidin-5-yl)phenyl)-6-(4-(trifluoromethoxy)phenyl)-5,6-dihydro-4H-1,3-thiazin-2-amine] was tested. Which IC50 did it give?
The IC50 was 8900 nM.

COc1ccccc1[C@@H]1C[C@@H](c2cccc(-c3cncnc3)c2)N=C(N)S1 (racemic) [Example 11, (±)-6-(2-methoxyphenyl)-4-(3-(pyrimidin-5-yl)phenyl)-5,6-dihydro-4H-1,3-thiazin-2-amine•TFA] was tested. Which IC50 did it give?
The IC50 was 2400 nM.

How did the IC50 turn out when N#Cc1ccc([C@@H]2C[C@@H](c3cccc(-c4cncnc4)c3)N=C(N)S2)cc1 (racemic) [Example 12, 4-((±)-2-amino-4-(3-(pyrimidin-5-yl)phenyl)-5,6-dihydro-4H-1,3-thiazin-6-yl)benzonitrile] was run?
Its IC50 is 1800 nM.

For COc1ccc([C@@H]2C[C@@H](c3cccc(-c4cncnc4)c3)N=C(N)S2)cc1 (racemic) [Example 13, (±)-6-(4-methoxyphenyl)-4-(3-(pyrimidin-5-yl)phenyl)-5,6-dihydro-4H-1,3-thiazin-2-amine], which IC50 is on record?
The IC50 was 3700 nM.

For NC1=N[C@H](c2cccc(-c3cncnc3)c2)C[C@@H](c2ccc(Cl)cc2)S1 (racemic) [Example 14, (±)-6-(4-chlorophenyl)-4-(3-(pyrimidin-5-yl)phenyl)-5,6-dihydro-4H-1,3-thiazin-2-amine•TFA], which IC50 is on record?
Its IC50 is 2700 nM.

How did the IC50 turn out when COc1cccc([C@@H]2C[C@@H](c3cccc(-c4cncnc4)c3)N=C(N)S2)c1 (racemic) [Example 15, (±)-6-(3-methoxyphenyl)-4-(3-(pyrimidin-5-yl)phenyl)-5,6-dihydro-4H-1,3-thiazin-2-amine•TFA] was run?
The IC50 was 2800 nM.

Source: US9475784B2, “4,6-diarylaminothiazines as BACE1 inhibitors and their use for the reduction of beta-amyloid production” (BRISTOL-MYERS SQUIBB COMPANY, priority 2012, dated 2016)
